Results: patent US9073929B2, “Aldosterone synthase inhibitors” (ElexoPharm GmbH, priority 2011, dated 2015)

Key:
Assay type in all cases: cell-based
human CYP11B2 [1] = target: T1, human CYP11B2 (Homo sapiens, UniProt P19099); experiment: V79MZh11B2 cell assay, [3H]-deoxycorticosterone, HPLC radioflow detection; conditions: V79MZh11B2 cells, 100 nM deoxycorticosterone, 50 min, read-out: V79 Human CYP11B2 IC50
T1 construct: expressed in transfected cells; host or cells: V79 cells (clone V79-hCYP11B2-CLE9)
T1 sequence (P19099 25-503): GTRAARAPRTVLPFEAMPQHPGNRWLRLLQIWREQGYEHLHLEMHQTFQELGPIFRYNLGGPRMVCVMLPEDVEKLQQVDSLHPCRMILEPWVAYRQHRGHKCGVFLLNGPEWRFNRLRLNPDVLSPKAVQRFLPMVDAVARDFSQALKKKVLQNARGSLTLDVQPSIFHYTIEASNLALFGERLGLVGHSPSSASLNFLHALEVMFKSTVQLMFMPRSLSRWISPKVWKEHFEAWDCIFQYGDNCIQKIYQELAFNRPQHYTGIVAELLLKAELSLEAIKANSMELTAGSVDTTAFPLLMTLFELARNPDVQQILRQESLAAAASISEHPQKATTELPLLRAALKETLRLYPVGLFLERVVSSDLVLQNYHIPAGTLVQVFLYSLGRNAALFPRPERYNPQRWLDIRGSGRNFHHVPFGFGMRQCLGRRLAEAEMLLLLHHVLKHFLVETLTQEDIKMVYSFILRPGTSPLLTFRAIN
Protocol: (§1) Compounds of the Examples 157-170 were assayed for V79-Human-CYP11B2 and V79-Human-CYP11B1 by modifying the protocol described in J. Steroid Biochem. Mol. Biol. 81; 173-179 (2002). V79MZh11B1 and V79MZh11B2 cells (8×10^5 cells/well) were grown on 24-well culture plates until confluence. Before testing, the DMEM culture medium was removed and 450 μl of fresh DMEM containing the inhibitor was added to each well. After a preincubation step of 60 min at 37° C., the reaction was started by the addition of 50 μl of DMEM in which the substrate deoxycorticosterone (containing 0.15 μCi of [1,2-3H]-deoxycorticosterone in ethanol, final test concentration 100 nM) was dissolved. Incubation times were 25 min for V79MZh11B1 and 50 min for V79MZh11B2 cells at 37° C., respectively. The enzyme reactions were stopped by extracting the supernatant with ethyl acetate. Samples were centrifuged (10.000 g, 5 min) and the solvent was pipetted into fresh cups. After evaporation of the solvent, the steroids were redissolved in 40 μl of […] and analyzed by HPLC. Detection and quantification of the steroids were performed using a radioflow detector. […] The inhibitor concentrations were all in the linear range of the dose-response-curves, so that the coefficients of correlation were at least 0.95 for each determination. The final IC50 value was estimated as the average of three or four independent IC50 values and a selectivity factor corresponding to the ratio between the IC50 values of CYP11B1 and CYP11B2 was calculated for each substance.

human CYP11B1 [2] = target: T2, human CYP11B1 (Homo sapiens, UniProt P15538); experiment: V79MZh11B1 cell assay, [3H]-deoxycorticosterone, HPLC radioflow detection; conditions: V79MZh11B1 cells, 100 nM deoxycorticosterone, 25 min, read-out: V79 Human CYP11B1 IC50
T2 construct: expressed in transfected cells; host or cells: V79MZh11B1 cells
T2 sequence (P15538 25-503): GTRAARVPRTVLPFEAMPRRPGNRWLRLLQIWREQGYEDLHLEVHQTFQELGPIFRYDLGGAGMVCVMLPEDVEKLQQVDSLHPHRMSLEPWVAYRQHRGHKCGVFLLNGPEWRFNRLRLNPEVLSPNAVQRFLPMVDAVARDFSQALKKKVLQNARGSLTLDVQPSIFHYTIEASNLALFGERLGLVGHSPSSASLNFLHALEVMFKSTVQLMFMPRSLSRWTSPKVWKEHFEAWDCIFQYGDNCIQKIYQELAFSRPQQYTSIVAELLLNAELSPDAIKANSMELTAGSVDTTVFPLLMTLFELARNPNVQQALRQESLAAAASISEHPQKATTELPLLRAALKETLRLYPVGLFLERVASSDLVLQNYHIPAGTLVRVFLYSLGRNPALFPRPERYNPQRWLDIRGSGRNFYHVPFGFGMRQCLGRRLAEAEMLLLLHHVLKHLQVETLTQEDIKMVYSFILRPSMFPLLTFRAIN
Protocol: as §1

human CYP11B2 [3] = target: T1, human CYP11B2; experiment: V79-Human-CYP11B2 cell assay, modified protocol (600,000 cells/mL); conditions: 0.30 μl inhibitor
Protocol: (§2) V79 cell lines stably expressing the either the human CYP11B2 or the human CYP11B1 enzyme were generated using a standard transfection protocol. V79 cells were transfected with plasmids pTriEx3-Hygro-hCyp11B2 or pTriEx3-Hygro-hCyp11B1 using Lipofectamine2000 reagent. V79 cells that stably express the human CYP11B2 or human CYP11B1 enzyme were selected for and maintained in DMEM supplemented with 10% FBS and 400 μg/mL hygromycin for ˜2 weeks. Single cell clones were generated by infinite dilution in DMEM supplemented with 10% FBS and 400 μg/mL hygromycin until single colonies were obtained. […] For testing of inhibitors, cells were harvested at 80% confluency with 0.5% Trypsan-EDTA, washed once in PBS, and reconstituted in DMEM+0.1% BSA media at a cell concentration of 400,000 cells/mL. 25 μl of cells were added to a 384 well tissue culture treated plate and mixed with 0.25 μl of inhibitor or DMSO (1% final DMSO concentration) for 1 hour at 37° C., 5% CO2. After pre-incubation with inhibitor, the reaction was initiated by adding 5 μl of substrate (final concentration of 125 nM 11-deoxycorticosterone for the CYP11B2 assay or 250 nM 11-deoxycortisol for the CYP11B1 assay). The reaction was carried out for 3 hours at 37° C., 5% CO2 and was stopped by harvesting the supernatants. The amount of product in the supernatant (aldosterone for CYP11B2 assay and cortisol for the CYP11B1 assay) was measured using HTRF-based assay kit (Aldosterone HTRF-CisBio#64ALDPEB, Cortisol HTRF-CisBio #631DC002-CORT). IC50's for the inhibitor were determined by plotting the amount of product formed against the concentration of inhibitor using sigmoidal dose-response curve (variable slope) fit in GraphPad.
(§3) For the CYP11B2 assay, cells were reconstituted in DMEM+0.1% BSA media at a cell concentration of 600,000 cells/mL and for the CYP11B1 assay cells were reconstituted in DMEM+0.1% BSA media at a cell concentration of 280,000 cells/mL. 25 μl of cells were added to a 384 well tissue culture treated plate and mixed with 0.30 μl of inhibitor or DMSO (1% final DMSO concentration) for 1 hour at 37° C., 5% CO2.

human CYP11B1 [4] = target: T2, human CYP11B1; experiment: V79-Human-CYP11B1 cell assay, modified protocol (280,000 cells/mL); conditions: 0.30 μl inhibitor
Protocol: as §2, §3

Row | Molecule | IC50 (human CYP11B2 [1]) [nM] | IC50 (human CYP11B1 [2]) [nM] | IC50 (human CYP11B2 [3]) [nM] | IC50 (human CYP11B1 [4]) [nM]
1 | CC(=O)c1cncc(-c2cc(F)c3c(c2)CCc2nnc(C)n2-3)c1 [Example 160, 1-[5-(9-fluoro-1-methyl-4,5-dihydro-[1,2,4]triazolo[4,3-a]quinolin-7-yl)-pyridin-3-yl]-ethanone] | 87.6 | 6970 |  | 
2 | CCc1c(F)cncc1-c1cc(Cl)c2c(c1)CCc1nnc(C)n1-2 [Example 80, 9-chloro-7-(4-ethyl-5-fluoropyridin-3-yl)-1-methyl-4,5-dihydro[1,2,4]triazolo-[4,3-a]quinoline] |  |  | 7 | 3140
3 | Cc1nnc2n1-c1c(Cl)cc(-c3cnccc3C(F)(F)F)cc1CC2 [Example 83, 9-chloro-1-methyl-7-(4-(trifluoromethyl)pyridin-3-yl)-4,5-dihydro-[1,2,4] triazolo[4,3-a]quinoline] |  |  | 22 | > 30000
4 | COc1c(C)cncc1-c1cc2c(cc1F)-n1c(C)nnc1CC2 [Example 122, 8-fluoro-7-(4-methoxy-5-methylpyridin-3-yl)-1-methyl-4,5-dihydro-[1,2,4]triazolo[4,3-a]quinoline] |  |  | 32 | > 10000
5 | Cc1nnc2n1-c1c(F)cc(-c3cncc(C(C)O)c3)cc1CC2 (stereo not shown) [Example 159, 1-[5-(9-fluoro-1-methyl-4,5-dihydro-[1,2,4]triazolo[4,3-a]quinolin-7-yl)-pyridin-3-yl]-ethanol] | 28.3 | 3910 |  | 
6 | Cc1nnc2n1-c1cc(F)c(-c3cccnc3)cc1CC2 [Example 167, 8-fluoro-1-methyl-7-pyridin-3-yl-4,5-dihydro-[1,2,4]triazolo[4,3-a]quinoline] | 131 | 12600 |  | 
7 | Cc1nnc2n1-c1c(F)cc(-c3cncc(-c4ccccc4)c3)cc1CC2 [Example 162, 9-fluoro-1-methyl-7-(5-phenyl-pyridin-3-yl)-4,5-dihydro-[1,2,4]triazolo[4,3-a]quinoline] | 7.1 | 428 |  | 
8 | Fc1cc2c(cc1-c1cccnc1)CCc1nncn1-2 [Example 168, 8-fluoro-7-pyridin-3-yl-4,5-dihydro-[1,2,4]triazolo[4,3-a]quinoline] | 244 | 7900 |  | 
9 | CCc1c(F)cncc1-c1cc2c(c(F)c1F)-n1c(C)nnc1CC2 [Example 170, 7-(4-ethyl-5-fluoropyridin-3-yl)-8,9-difluoro-1-methyl-4,5-dihydro-[1,2,4]triazolo[4,3-a]quinoline] | 41 | 17300 |  | 
10 | Cc1nnc2n1-c1c(F)cc(-c3cncc(C(F)(F)F)c3)cc1CC2 [Example 161, 9-fluoro-1-methyl-7-(5-trifluoromethyl-pyridin-3-yl)-4,5-dihydro-[1,2,4]triazolo [4,3-a]quinoline] | 57.2 | 3570 |  | 
11 | Cc1nnc2n1-c1c(F)cc(-c3cncc4ccccc34)cc1CC2 [Example 164, 9-fluoro-7-isoquinolin-4-yl-1-methyl-4,5-dihydro-[1,2,4]triazolo[4,3-a]quinoline] | 2.2 | 110 |  | 
12 | Cc1ccncc1-c1cc(F)c2c(c1)CCc1nnc(C)n1-2 [Example 163, 9-fluoro-1-methyl-7-(4-methyl-pyridin-3-yl)-4,5-dihydro-[1,2,4]triazolo[4,3-a]quinoline] | 4.2 | 1770 |  | 
13 | Fc1cc(-c2cccnc2)cc2c1-n1cnnc1CC2 [Example 166, 9-fluoro-7-pyridin-3-yl-4,5-dihydro-[1,2,4]triazolo[4,3-a]quinoline] | 172 | 16100 |  | 
14 | Cc1nnc2n1-c1c(F)cc(-c3cncc(F)c3)cc1CC2 [Example 157, 9-fluoro-7-(5-fluoro-pyridin-3-yl)-1-methyl-4,5-dihydro-[1,2,4]triazolo[4,3-a]quinoline] | 89.7 | 29500 |  | 
15 | 9-chloro-7-(5-chloro-4- methylpyridin-3-yl)-1- methyl-4,5-dihydro- [1,2,4]triazolo[4,3- a]quinoline [Example 93] |  |  | 6 | 765
16 | CCc1c(F)cncc1-c1cc(F)c2c(c1)CCc1nnc(C)n1-2 [Example 169, 7-(4-ethyl-5-fluoropyridin-3-yl)-9-fluoro-1-methyl-4,5-dihydro-[1,2,4]triazolo[4,3-a]quinoline] | 11 | 3070 |  | 
17 | Cc1nnc2n1-c1c(Cl)cc(-c3cnccc3C3CC3)cc1CC2 [Example 96, 9-chloro-7-(4-cyclopropylpyridin-3-yl)-1-methyl-4,5-dihydro-[1,2,4]triazolo[4,3-a]quinoline] |  |  | 48 | 6930
18 | Cc1nnc2n1-c1cc(Cl)c(-c3cncc4ccccc34)cc1CC2 [Example 113, 8-chloro-7-(isoquinolin-4-yl)-1-methyl-4,5-dihydro-[1,2,4]triazolo[4,3-a]quinoline] |  |  | 17 | > 10000
19 | COc1cncc(-c2cc(F)c3c(c2)CCc2nnc(C)n2-3)c1 [Example 158, 9-fluoro-7-(5-methoxy-pyridin-3-yl)-1-methyl-4,5-dihydro-[1,2,4]triazolo[4,3-a] quinoline] | 20.3 | 1810 |  | 
20 | Cc1nnc2n1-c1c(F)cc(-c3cccnc3)cc1CC2 [Example 165, 9-fluoro-1-methyl-7-pyridin-3-yl-4,5-dihydro-[1,2,4]triazolo[4,3-a]quinoline] | 62.5 | 17000 |  | 
